Among the data in article PMC2830944, “Purification and functional characterization of protoplasts and intact vacuoles from grape cells” (BMC Research Notes, 2010) are Km values, retold here.

For assay [1], the system named is T1, V-ATPase (vacuolar ATPase, V-H+-ATPase).
T1 construct: gene VHA-A; native multisubunit complex in intact vacuoles isolated from protoplasts of cultured grape berry cells
Nature of the assay: ACMA fluorescence quenching, initial velocity of proton pumping in intact vacuoles. The class given is biochemical, Vitis vinifera. As to conditions: 100 mM KCl, 2 mM MgCl2, 0.1% BSA, 10 mM MOPS-Tris pH 7.2, 2 μM ACMA; 0.05 to 1.5 mM ATP.

Assay [2] relates to V-PPase (vacuolar inorganic pyrophosphatase, V-H+-PPase). As to conditions: 100 mM KCl, 2 mM MgCl2, 0.1% BSA, 10 mM MOPS-Tris pH 7.2, 2 μM ACMA; 0.1 to 150 μM PPi.

The Km is the concentration of substrate that gives half-maximal velocity. `Nc1ncnc2c1ncn2[C@@H]1O[C@H](COP(=O)(O)OP(=O)(O)OP(=O)(O)O)[C@@H](O)[C@H]1O` [ATP]: in assay [1], the Km came to 340 µM.

As for `O=P(O)(O)OP(=O)(O)O` [PPi], in assay [2], the Km was 2 µM.
